The term IC50 denotes the concentration that gives 50% inhibition. For orientation: Kd means the constant that tells how readily two partners part at equilibrium.

Values joined by “and” are separate entries in the source; they are usually repeats but may differ in a detail not shown here. Identical values can stand only once. Like-named read-outs stand apart in the source and are kept apart here. Some results are limits rather than exact numbers.

Consider 5 compounds from article PMC7402352, “Discovery of Novel Non-Steroidal Cytochrome P450 17A1 Inhibitors as Potential Prostate Cancer Agents” (International Journal of Molecular Sciences, 2020).

Experiment [1] deals with T1, human CYP17A1 (Homo sapiens, UniProt P05093).
T1 construct: made in house
T1 sequence (P05093 24-508 limits assumed): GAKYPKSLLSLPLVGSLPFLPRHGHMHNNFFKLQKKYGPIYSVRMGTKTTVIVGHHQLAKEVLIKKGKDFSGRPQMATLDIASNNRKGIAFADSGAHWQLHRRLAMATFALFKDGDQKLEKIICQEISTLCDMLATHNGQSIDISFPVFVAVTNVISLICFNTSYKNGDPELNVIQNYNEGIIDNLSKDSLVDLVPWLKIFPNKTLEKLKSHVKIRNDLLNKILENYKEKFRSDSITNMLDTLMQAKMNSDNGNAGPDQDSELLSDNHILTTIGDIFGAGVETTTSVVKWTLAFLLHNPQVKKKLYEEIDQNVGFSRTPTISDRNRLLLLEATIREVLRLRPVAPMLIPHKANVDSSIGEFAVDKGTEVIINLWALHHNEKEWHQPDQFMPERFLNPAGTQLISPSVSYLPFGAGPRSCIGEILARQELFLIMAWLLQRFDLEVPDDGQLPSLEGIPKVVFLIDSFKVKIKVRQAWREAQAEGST
The experiment in a line: Cytochrome P450 17A1 progesterone 17α-hydroxylation inhibition assay. It is filed as biochemical. Conditions: recombinant purified CYP17A1. The procedure: Regardless of their binding affinity, all compounds were tested for their ability to inhibit progesterone 17α-hydroxylation by recombinant purified CYP17A1 (Supplementary Materials S2).
Purified recombinant human CYP17A1 (20 pmol) and human full-length cytochrome P450 reductase (80 pmol) were used to convert progesterone (purchased from Acros Organics, Fair Lawn, NJ, USA) (6 µM) to 17α-hydroxyprogesterone. Test inhibitors were dissolved in DMSO and initially tested in concentrations ranging from 1.3 to 41 µM. In subsequent assays the range of inhibitor concentrations was optimized to best define the IC50 of individual compounds. Reactions were run and the 17α -hydroxyprogesterone product measured by LC-MS as previously published.
IC50 curves for compounds inhibiting CYP17A1 progesterone 17-hydroxylation (black circles),
CYP21A2 progesterone 21-hydroxylation (red diamonds), CYP3A4 nifedipine metabolism
(green squares), and CYP2D6 quinidine metabolism (blue triangles).
(§1) (1 picture or pasted object on this page, not shown here)

Experiment [2] relates to PC3 cells. The experiment in a line: Prostate cancer cell line proliferation screening (GR), PC3. It is filed as cell-based, human. The conditions noted are these: 10 µM, 48 h. The procedure:
Next, we tested the effect of compounds 1a–1e on prostate cancer derived cell lines. The anti-proliferative activity was determined in vitro by adding 10 µM compound to each of three prostate cancer cell lines (LNCaP, DU145, and PC3). As an additional comparison, immortalized non-cancerous fibroblasts (BJ hTERT) were used. These cancer cell lines are considered the classic standard of PCa cell culture. Since these cell lines grew at very different rates, inhibition of growth rate (GR) was used as a metric. All compounds except 1e were non-toxic to non-cancerous cells. Compounds 1a and 1c were both cytotoxic in the PC3 cell line (Figure 3). […] DU145 cells were weakly affected by only compound 1e with growth rate inhibition more than 50% (GR < 0.5). […] We observed substantial susceptibility of PC3 cells in comparison to DU145 (see Supplementary Materials S3 for GR50 in PC3 cells). These two cell lines are similar in many respects. […] However, they differ in their origins, PC3 being derived from a lumbar vertebral metastatic prostate tumour and DU145 from a brain metastatic prostate tumour. […] By observing a uniform response of all cell lines used in the present study to 5-fluorouracil (5-FU), we were able to rule out any general cell dependent variability in chemosensitivity towards anti-metabolite treatment. Still, chemoresistance in PC3 and DU145 may be mediated by other mechanisms. While AR also functions as a tumour suppressor inhibiting cell proliferation, it is possible in AR deprived cells to observe growth inhibition when cells retain necessary coregulators. […]
Cells were grown to approximately 80% confluence in 150 mm culture dishes and harvested by 0.25% Trypsin/EDTA (Gibco) treatment. Released cells were counted and seeded in 384 well plates (Falcon, ref. 353962) in 30 µl media with a cell count of 1500 (BJ cells, PC-3) or and 3500 (LNCaP (Lund)) cells per well. […] The cells incubated for 24 h, after which cell counts in wells of one 384-well plate were determined as described below (time zero). […]

The target in experiment [3] is T2, human cytochrome P450 17A1 (Homo sapiens, UniProt P05093).
T2 construct: made in house
T2 sequence (P05093 1-508): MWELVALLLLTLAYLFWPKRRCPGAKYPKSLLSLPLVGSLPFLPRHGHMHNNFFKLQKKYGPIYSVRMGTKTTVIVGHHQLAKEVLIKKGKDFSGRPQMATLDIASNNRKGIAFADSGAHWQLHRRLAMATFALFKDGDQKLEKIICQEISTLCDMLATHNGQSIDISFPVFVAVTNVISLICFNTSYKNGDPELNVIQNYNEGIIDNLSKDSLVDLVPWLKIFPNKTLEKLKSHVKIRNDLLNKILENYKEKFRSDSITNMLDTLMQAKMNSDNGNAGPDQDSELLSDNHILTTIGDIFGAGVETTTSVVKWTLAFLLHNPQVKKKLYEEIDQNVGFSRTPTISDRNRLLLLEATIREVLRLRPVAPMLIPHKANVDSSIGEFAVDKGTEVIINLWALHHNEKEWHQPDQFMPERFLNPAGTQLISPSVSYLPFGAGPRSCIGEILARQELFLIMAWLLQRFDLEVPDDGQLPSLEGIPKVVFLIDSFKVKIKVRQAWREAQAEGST
The experiment in a line: Spectral binding assay (CYP17A1 ligand binding). The conditions noted are these: purified recombinant human CYP17A1, spectral titration.
Source text: The target compounds were initially tested for binding mode and affinity for CYP17A1 using a spectral binding assay. This assay can distinguish the mode of interaction, with a blue shift of the Soret absorbance occurring when ligand displaces water from the heme iron to generate a five-coordinate iron without direct coordination to the heme iron (type I, similar to most substrates) or a red shift of the Soret peak when the ligand nitrogen replaces the water to directly interact with the six-coordinate iron (type II, similar to many inhibitors). […] This 3-pyridyl fragment is also found in abiraterone.
Initial ligand binding was evaluated by measuring absorbance changes in CYP17A1 upon addition of ligands. Purified recombinant human cytochrome P450 17A1 enzyme (1 µM) in buffer (25 mM potassium phosphate, pH 7.4, 200 mM NaCl, 20% glycerol) was titrated with ligands. Ligands were dissolved in DMSO and added to three concentrations (500, 1000, and 2000 nM). The spectral intensity difference (ΔA) was measured as difference between […]. The Amin was typically at ~410 nm and Amax at ~440 nm for the type II changes observed for these ligands.
S2. Binding spectra and CYP IC50 curves
Difference spectrum of cytochrome P450 17A1 with vs. without compound 1a (2 µM).
All compounds are type II and display the same shift as the example above.
as §1

Experiment [4] has as its target T2, human cytochrome P450 17A1. The conditions noted are these: ref [10]; read-out: CYP17A1 Kd; cited from earlier work.
The target of experiment [5] is T1, human CYP17A1. Further details: method as in PMID 28373265. The conditions noted are these: ref [11]; cited from earlier work.

With `c1ccc2c(c1)ncn2-c1ccc(Nc2ccncc2)cc1` [Compound 1a], the IC50 in experiment [1] is 8000 nM and 8060 nM. Besides, in experiment [2], the “Antiproliferative response in PC3 cells (growth rate inhibition, in words)” value was “cytotoxic”. The Kd in experiment [3] was 290 ± 55 nM.

For the compound `c1ccc(Nc2ccc(-n3cnc4ccccc43)cc2)cc1` [Compound 1d], the IC50 in experiment [1] turned out to be 1760 ± 190 nM. In addition, in experiment [3], the Kd was determined as 150 ± 37 nM.

Turning to `C[C@]12CC[C@H](O)CC1=CC[C@@H]1[C@@H]2CC[C@]2(C)C(n3cnc4ccccc43)=CC[C@@H]12` [Galeterone], the Kd in experiment [4] was under 100 nM. Further, the IC50 in experiment [5] is 130 nM.

For the compound `c1ccc(Nc2ccc(-n3cnc4ccccc43)cc2)nc1` [Compound 1b], the IC50 in experiment [1] is over 10000 nM. For the same compound, the Kd in experiment [3] is 420 ± 70 nM.

As for `C[C@]12CC[C@H](O)CC1=CC[C@@H]1[C@@H]2CC[C@]2(C)C(c3cccnc3)=CC[C@@H]12` [Abiraterone], the Kd in experiment [4] was under 100 nM. In experiment [5], the IC50 is 80 nM. Besides, the “Antiproliferative response in PC3 cells (growth rate inhibition, in words)” value in experiment [2] is given as “low antiproliferative activity”.
